Laboratory results from the NIST ThermoML archive (doi:10.1021/acs.jced.7b00712).

Conditions: Brillouin light scattering

CC(C)CC(C)(C)C [2,2,4-trimethylpentane]
Conditions	speed of sound [m/s]
294.06 K, 100 kPa, Liquid	1099.7
294.37 K, 3000 kPa, Liquid	1127.4
294.65 K, 6000 kPa, Liquid	1147.6
294.84 K, 10000 kPa, Liquid	1176.1
294.97 K, 12000 kPa, Liquid	1181.7
304.03 K, 100 kPa, Liquid	1058.5
304.16 K, 3000 kPa, Liquid	1088.2
304.23 K, 6000 kPa, Liquid	1109.6
304.27 K, 10000 kPa, Liquid	1136.9
304.27 K, 12000 kPa, Liquid	1147.7
313.81 K, 100 kPa, Liquid	1017.3
313.82 K, 10000 kPa, Liquid	1100.1
313.85 K, 12000 kPa, Liquid	1110.8
313.92 K, 3000 kPa, Liquid	1037.2
313.96 K, 6000 kPa, Liquid	1065.2
323.56 K, 100 kPa, Liquid	978.2
323.61 K, 3000 kPa, Liquid	999.1
323.65 K, 6000 kPa, Liquid	1027.4
323.67 K, 10000 kPa, Liquid	1060.4
323.71 K, 12000 kPa, Liquid	1075.4
333.4 K, 12000 kPa, Liquid	1041.9
333.42 K, 100 kPa, Liquid	938.5
333.46 K, 10000 kPa, Liquid	1028
333.48 K, 3000 kPa, Liquid	968
333.5 K, 6000 kPa, Liquid	996
342.88 K, 100 kPa, Liquid	898
343.07 K, 3000 kPa, Liquid	927.9
343.16 K, 6000 kPa, Liquid	954.8
343.21 K, 12000 kPa, Liquid	1008.5
343.22 K, 10000 kPa, Liquid	990.3
352.86 K, 100 kPa, Liquid	858.9
352.89 K, 3000 kPa, Liquid	891.7
352.94 K, 6000 kPa, Liquid	921.1
353.01 K, 10000 kPa, Liquid	961.7
353.04 K, 12000 kPa, Liquid	975.5
363.39 K, 3000 kPa, Liquid	852.2
363.49 K, 6000 kPa, Liquid	883.5
363.54 K, 10000 kPa, Liquid	925.7
363.55 K, 100 kPa, Liquid	821.9
363.58 K, 12000 kPa, Liquid	943.8
373.04 K, 3000 kPa, Liquid	821.1
373.27 K, 6000 kPa, Liquid	843.9
373.41 K, 10000 kPa, Liquid	888.2
373.49 K, 12000 kPa, Liquid	908.6
383.18 K, 3000 kPa, Liquid	783.2
383.8 K, 6000 kPa, Liquid	813.8
384.11 K, 10000 kPa, Liquid	855.6
384.26 K, 12000 kPa, Liquid	876.5
393.83 K, 3000 kPa, Liquid	742.3
394 K, 6000 kPa, Liquid	782.2
394.15 K, 10000 kPa, Liquid	825.8
394.19 K, 12000 kPa, Liquid	848.1
402.16 K, 3000 kPa, Liquid	716.5
402.48 K, 6000 kPa, Liquid	750.9
402.64 K, 10000 kPa, Liquid	800.2
402.78 K, 12000 kPa, Liquid	819.5
412.57 K, 3000 kPa, Liquid	677.6
412.84 K, 6000 kPa, Liquid	719.3
413.07 K, 10000 kPa, Liquid	766.7
413.22 K, 12000 kPa, Liquid	791.3
423.95 K, 3000 kPa, Liquid	636.8
424.32 K, 6000 kPa, Liquid	678.1
424.49 K, 10000 kPa, Liquid	732.1
424.59 K, 12000 kPa, Liquid	756.7
434.51 K, 3000 kPa, Liquid	602.6
434.94 K, 6000 kPa, Liquid	647.4
435.26 K, 10000 kPa, Liquid	701
435.36 K, 12000 kPa, Liquid	726.5
443.7 K, 3000 kPa, Liquid	569.7
444 K, 6000 kPa, Liquid	619.6
444.22 K, 10000 kPa, Liquid	677.1
444.36 K, 12000 kPa, Liquid	700.3
452.94 K, 3000 kPa, Liquid	538.4
453.22 K, 6000 kPa, Liquid	588.3
454.37 K, 10000 kPa, Liquid	648.8
455.24 K, 12000 kPa, Liquid	671.1
462.54 K, 3000 kPa, Liquid	502.1
463.04 K, 6000 kPa, Liquid	558.9
463.43 K, 10000 kPa, Liquid	622.7
463.72 K, 12000 kPa, Liquid	651.6
472.45 K, 3000 kPa, Liquid	464.2
472.86 K, 6000 kPa, Liquid	530.7
473.22 K, 10000 kPa, Liquid	596.3
473.48 K, 12000 kPa, Liquid	627.7
483.15 K, 3000 kPa, Liquid	423.5
483.63 K, 6000 kPa, Liquid	496.7
484.05 K, 10000 kPa, Liquid	569.9
484.3 K, 12000 kPa, Liquid	598.4
493.12 K, 3000 kPa, Liquid	386.4
493.56 K, 6000 kPa, Liquid	464.9
494.09 K, 10000 kPa, Liquid	542.2
494.42 K, 12000 kPa, Liquid	576.5
502.8 K, 3000 kPa, Liquid	350.1
503.17 K, 6000 kPa, Liquid	435.4
503.79 K, 10000 kPa, Liquid	516.1
504.09 K, 12000 kPa, Liquid	550.4
512.41 K, 3000 kPa, Liquid	311.4
513.04 K, 6000 kPa, Liquid	404
513.78 K, 10000 kPa, Liquid	491.8
514.01 K, 12000 kPa, Liquid	526.6
523.31 K, 3000 kPa, Liquid	264.5
523.97 K, 6000 kPa, Liquid	371.4
524.59 K, 10000 kPa, Liquid	463
524.7 K, 12000 kPa, Liquid	501.3
543.28 K, 3000 kPa, Fluid (supercritical or subcritical phases)	159
543.47 K, 4000 kPa, Fluid (supercritical or subcritical phases)	233.1
543.63 K, 5000 kPa, Fluid (supercritical or subcritical phases)	282.2
